Assay results from the supplement of paper PMC10627819.

What was measured:
B. subtilis 168 [1] = assay: Bliss interaction score (quartile over a dose matrix) (fitness difference); higher = more antagonism (negative = synergy)
In short: (§1)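 OD595 was read at entry into stationary phase and expressed relative to the robust mean of the no-drug wells on the same plate, capped at 1. The resulting ratio is the fitness value. The Bliss score, observed fitness minus product-based expected fitness with single-drug fitness inferred from combinations, is summarised by quartiles over technical, biological and donor/recipient replicates.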

S. aureus DSM 20231 [2] = assay: as above
In short: as §1

S. pneumoniae D39V [3] = assay: as above
In short: as §1

S. aureus Newman [4] = assay: as above
In short: as §1

B. subtilis 168 [5] = assay: fitness (endpoint OD595 vs no drug) (fraction); higher = more growth
In short: (§2)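 Fitness was defined as the optical density at the transition into stationary phase relative to the robust mean of no-drug control wells. Values were capped at 1. Cultures were started at OD595 0.01 in 384-well plates (30 µl, or 55 µl for S. pneumoniae) in TSB, LB Lennox or CY at 37 °C. OD595 was recorded every 30 min over 14 h, with the first reading subtracted as background.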

S. aureus DSM 20231 [6] = assay: as above
In short: as §2

S. pneumoniae D39V [7] = assay: as above
In short: as §2

S. aureus Newman [8] = assay: as above; conditions: one replicate
In short: as §2
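Wherever Bliss interaction score (quartile over a dose matrix) is given: first quartile when negative (synergy) and third quartile when positive (antagonism).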

CO/N=C(\C(=O)N[C@@H]1C(=O)N2C(C(=O)O)=C(COC(C)=O)CS[C@H]12)c1csc(N)n1 [Cefotaxime] + CC1=C\[C@@H](O)CC(=O)Cc2nc(co2)C(=O)N2CCC=C2C(=O)O[C@H](C(C)C)[C@H](C)/C=C/C(=O)NC\C=C\1 [Virginiamycin M1]
Conditions	Bliss interaction score
B. subtilis 168 [1]	0.0729
S. aureus DSM 20231 [2]	0.0452
S. aureus Newman [4]	-0.0479
S. pneumoniae D39V [3]	-0.0315

one replicate
Conditions	fitness
B. subtilis 168 [5], first compound 0.00775 µg/mL, partner 0.0625 µg/mL	0.854
B. subtilis 168 [5], first compound 0.00775 µg/mL, partner 0.125 µg/mL	0.833
B. subtilis 168 [5], first compound 0.00775 µg/mL, partner 0.25 µg/mL	0.833
B. subtilis 168 [5], first compound 0.0155 µg/mL, partner 0.0625 µg/mL	0.695
B. subtilis 168 [5], first compound 0.0155 µg/mL, partner 0.125 µg/mL	0.683
B. subtilis 168 [5], first compound 0.0155 µg/mL, partner 0.25 µg/mL	0.673
B. subtilis 168 [5], first compound 0.031 µg/mL, partner 0.0625 µg/mL	0.554
B. subtilis 168 [5], first compound 0.031 µg/mL, partner 0.125 µg/mL	0.557
B. subtilis 168 [5], first compound 0.031 µg/mL, partner 0.25 µg/mL	0.583
S. aureus DSM 20231 [6], first compound 0.039 µg/mL, partner 0.0625 µg/mL	0.775
S. aureus DSM 20231 [6], first compound 0.039 µg/mL, partner 0.125 µg/mL	0.779
S. aureus DSM 20231 [6], first compound 0.039 µg/mL, partner 0.25 µg/mL	0.762
S. aureus DSM 20231 [6], first compound 0.078 µg/mL, partner 0.5 µg/mL	0.778
S. aureus DSM 20231 [6], first compound 0.078 µg/mL, partner 1 µg/mL	0.799
S. aureus DSM 20231 [6], first compound 0.156 µg/mL, partner 0.5 µg/mL	0.742
S. aureus DSM 20231 [6], first compound 0.156 µg/mL, partner 1 µg/mL	0.699
S. aureus DSM 20231 [6], first compound 0.312 µg/mL, partner 0.5 µg/mL	0.61
S. aureus DSM 20231 [6], first compound 0.312 µg/mL, partner 1 µg/mL	0.706
S. pneumoniae D39V [7], first compound 0.0018 µg/mL, partner 0.15 µg/mL	≥ 1
S. pneumoniae D39V [7], first compound 0.0018 µg/mL, partner 0.3 µg/mL	0.976
S. pneumoniae D39V [7], first compound 0.0035 µg/mL, partner 0.15 µg/mL	≥ 1
S. pneumoniae D39V [7], first compound 0.0035 µg/mL, partner 0.3 µg/mL	≥ 1
S. pneumoniae D39V [7], first compound 0.007 µg/mL, partner 0.15 µg/mL	≥ 1
S. pneumoniae D39V [7], first compound 0.007 µg/mL, partner 0.3 µg/mL	0.952

fitness
Conditions	partner 0.0625 µg/mL	partner 0.125 µg/mL	partner 0.25 µg/mL	partner 0.5 µg/mL	partner 1 µg/mL	partner 2 µg/mL
B. subtilis 168 [5], first compound 0.5 µg/mL	0.23	0.246	0.239	–	–	–
B. subtilis 168 [5], first compound 1 µg/mL	0.085	0.0947	0.119	–	–	–
B. subtilis 168 [5], first compound 2 µg/mL	0.0507	0.082	0.0814	–	–	–
S. aureus DSM 20231 [6], first compound 0.078 µg/mL	0.678	0.784	0.776	–	–	–
S. aureus DSM 20231 [6], first compound 0.156 µg/mL	0.711	0.83	0.741	–	–	–
S. aureus DSM 20231 [6], first compound 0.312 µg/mL	0.683	0.694	0.676	–	–	–
S. aureus Newman [8], first compound 0.039 µg/mL	–	–	–	0.71	0.72	0.732
S. aureus Newman [8], first compound 0.078 µg/mL	0.699	0.716	0.734	0.672	0.687	0.57
S. aureus Newman [8], first compound 0.156 µg/mL	0.494	0.468	0.509	0.648	0.613	0.444
S. aureus Newman [8], first compound 0.312 µg/mL	0.305	0.326	0.307	0.57	0.54	0.344
S. aureus Newman [8], first compound 0.625 µg/mL	0.0023	0.0438	0.039	–	–	–
S. aureus Newman [8], first compound 1.25 µg/mL	0.0272	0.0702	0.0726	–	–	–
S. aureus Newman [8], first compound 2.5 µg/mL	0.0428	0.0329	0.0641	–	–	–
S. pneumoniae D39V [7], first compound 0.0018 µg/mL	–	–	–	0.991	1	0.947
S. pneumoniae D39V [7], first compound 0.0035 µg/mL	–	–	–	0.975	0.95	0.966
S. pneumoniae D39V [7], first compound 0.007 µg/mL	–	–	–	0.916	0.957	0.917
